# Patent US8314079B2, “Hyaluronic acid oligosaccharide fractions and drugs containing the same” (Seikagaku Corporation, priority 2000, dated 2012)
# Tests used:
# SD male rats [1] = experiment: Carbon tetrachloride hepatopathy model; format: in vivo, rat
# Procedure: A test substance was dissolved in physiological saline to obtain a test solution for administration. The concentration was determined depending on the dose mentioned below so that the volume of the solution to be administered should become 5 mL/kg.
# Moreover, as a positive control solution, FAD (flavine adenine dinucleotide, Wakamoto Pharmaceutical), of which effect on the carbon tetrachloride hepatopathy model had been reported (Yakubutsu Ryouhou (Pharmacotherapy), vol. 9, Special edition, pp. 46-53), was used at a dose of 10 mg/kg. Further, physiological saline was used as a negative control solution.
# SD male rats of 5-week old were divided into a “negative control solution” administered group (n=8), “HA4 2 mg/kg” administered group (n=8), “HA4 10 mg/kg” administered group (n=8), “HA4 50 mg/kg” administered group (n=8), “positive control solution” administered group (n=8) and “normal” group (n=8).
# The rats of the groups were starved from 16:00 of the day before the first administration day, orally administered with 100 mg/kg of carbon tetrachloride (CCl4) before 8:00 of the next day and then intraperitoneally administered with each of the aforementioned solutions at 8:00. Thereafter, the rats were bred with maintaining starvation, and administered with each of the aforementioned solutions in the same manner as the first administration at 16:00 and 24:00. The rats were fed after the administration at 24:00 and dissected at 8:00 on the next day.
# After the dissection, blood was collected, and GOT activity and leucocyte count were measured. The GOT activity was measured by using a clinical chemistry autoanalyzer (COBAS MIRA S, Nippon Roche), and the leucocyte count was measured by using an automated hematology analyzer (Sysmex K-2000, produced by Sysmex).
# IL-10 in peripheral blood was measured by using IL-10 Rat ELISA (produced by ENDOGEN). IL-8 was measured by using Panatest A Series Rat CINC-1 (IL-8) (Panapharm Laboratories). The symbol of ** in FIGS. 51 and 52 indicates presence of significant difference with p<0.01 (Williams multiple range test).
# SD male rats [2] = experiment: Gastric ulcer caused by arrest by water immersion in rats; format: in vivo, rat
# Procedure: A test substance was dissolved in carboxymethylcellulose (CMC) to obtain a test solution for administration. The concentration was determined depending on the dose mentioned below so that the volume of the solution to be administered should become 10 mL/kg.
# Moreover, as a positive control solution, a conventional agent for treating gastritis and gastric ulcer (teprenone, geranylgeranylacetone, trade name: Selbex, Eisai) dissolved in CMC was used. The concentration was determined so that the dose and the volume of the solution to be administered should become 1 mg/kg (clinical dose) and 10 mL/kg, respectively. As a negative control solution, 0.5% CMC was used.
# SD male rats of 5-week old were divided into a “negative control solution” administered group (n=8), “HA4 4 mg/kg” administered group (n=8), “HA4 20 mg/kg” administered group (n=8), “HA4 100 mg/kg” administered group (n=8) and “positive control solution” administered group (n=8).
# The rats of the groups were starved from 16:00 of the day before the first administration day, orally administered with each of the aforementioned solutions at 8:00 of the next day and arrested by water immersion. The arrest by water immersion was continued until 8:00 of the next day (24 hours). In the course of the arrest, each solution was administered in the same manner as the first administration at 16:00 and 24:00.
# Then, the rats were dissected, and the stomachs were extracted. The extracted stomachs were expanded by injection of 10% buffered formalin to smoothen the holds and fixed. Then, the blood adhering to walls of stomachs was removed by washing with water.
# The area ratio of ulcerous portion degenerated in a dark brown color (ulcer area/glandular stomach area) was measured by using an image analysis apparatus (Image-Pro PLUS™ Version 3.0.1, produced by Media Cybernetics). The symbols * and ** in FIG. 48 indicate significant differences with p<0.05 and p<0.01, respectively (Williams multiple range test).
# [3] = HA4 2, 10, 50 mg/kg intraperitoneal, dose dependence
smiles,measurement,setting,value
"CC(=O)N[C@H]1[C@H](O[C@H]2[C@H](O)[C@@H](O)[C@H](O[C@H]3[C@H](O)[C@@H](CO)OC(O)[C@@H]3NC(C)=O)O[C@@H]2C(=O)O)O[C@H](CO)[C@@H](O)[C@@H]1O[C@@H]1O[C@H](C(=O)O)[C@@H](O)[C@H](O)[C@H]1O.[Na].[Na] (stereo partly drawn) [HA4, sodium β-D-glucopyranosyluronate-(1→3)-2-acetamido-2-deoxy-β-D-glucopyranosyl-(1→4)-(sodium β-D-glucopyranosyluronate)-(1→3)-2-acetamido-2-deoxy-D-glucopyranose]",GOT activity,"SD male rats [1]; HA4 50 mg/kg administered group, intraperitoneal, compared with negative control solution group, p<0.05",significant reduction
same,blood IL-10 level,"SD male rats [1]; HA4 50 mg/kg, compared with negative control solution group, p<0.01",significantly higher
same,blood IL-8 level,SD male rats [1]; [3],decreased in a manner dependent on the dose of HA4
same,blood IL-10 level,SD male rats [1]; [3],increased in a manner dependent on the dose of HA4
same,peripheral leucocyte count,SD male rats [1]; HA4 groups compared with FAD 10 mg/kg (positive control),decreased compared even with FAD
same,peripheral leucocyte count,"SD male rats [1]; all HA4 groups (2, 10, 50 mg/kg intraperitoneal), compared with negative control solution group",significant decrease
same,area ratio of ulcerous portion (ulcer area/glandular stomach area),"SD male rats [2]; 20 mg/kg oral, compared with positive control solution (teprenone 1 mg/kg)",lower than that observed for the positive control solution group
same,area ratio of ulcerous portion (ulcer area/glandular stomach area),"SD male rats [2]; 100 mg/kg oral, compared with positive control solution (teprenone 1 mg/kg)",lower than that observed for the positive control solution group
same,area ratio of ulcerous portion (ulcer area/glandular stomach area),"SD male rats [2]; all HA4 groups (4, 20, 100 mg/kg, oral, three administrations), compared with negative control solution group",significantly reduced
